In PubChem BioAssay (NCI):
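Compound exposure: 48 hours, 5 concentrations, 96-well plates. TGI: concentration producing complete growth inhibition.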

Key:
Test in all cases: NCI-60 cell line screen, 48 h
SF-268 CNS = test system: SF-268 CNS
MOLT-4 leukemia = test system: MOLT-4 leukemia
MDA-MB-435 = test system: MDA-MB-435
RPMI-8226 leukemia = test system: RPMI-8226 leukemia
IGROV1 ovarian = test system: IGROV1 ovarian
A549 NSCLC = test system: A549 NSCLC
SNB-19 CNS = test system: SNB-19 CNS
COLO 205 colon = test system: COLO 205 colon
HL-60(TB) leukemia = test system: HL-60(TB) leukemia
NCI/ADR-RES ovarian = test system: NCI/ADR-RES ovarian
OVCAR-5 ovarian = test system: OVCAR-5 ovarian
SK-MEL-2 melanoma = test system: SK-MEL-2 melanoma
M14 melanoma = test system: M14 melanoma
MDA-N = test system: MDA-N
OVCAR-3 ovarian = test system: OVCAR-3 ovarian
HT29 colon = test system: HT29 colon
HCT-15 colon = test system: HCT-15 colon
SK-MEL-5 melanoma = test system: SK-MEL-5 melanoma
HCC-2998 colon = test system: HCC-2998 colon
EKVX NSCLC = test system: EKVX NSCLC
LOX IMVI melanoma = test system: LOX IMVI melanoma
A498 renal = test system: A498 renal
K-562 leukemia = test system: K-562 leukemia
OVCAR-4 ovarian = test system: OVCAR-4 ovarian
ACHN renal = test system: ACHN renal
HS 578T breast = test system: HS 578T breast
KM12 colon = test system: KM12 colon
HOP-92 NSCLC = test system: HOP-92 NSCLC
SF-539 CNS = test system: SF-539 CNS
SNB-75 CNS = test system: SNB-75 CNS
HOP-62 NSCLC = test system: HOP-62 NSCLC
MDA-MB-231 breast = test system: MDA-MB-231 breast
T-47D breast = test system: T-47D breast
SR leukemia = test system: SR leukemia
MCF7 breast = test system: MCF7 breast
TK-10 renal = test system: TK-10 renal
UACC-257 melanoma = test system: UACC-257 melanoma
SW-620 colon = test system: SW-620 colon
UO-31 renal = test system: UO-31 renal
NCI-H23 lung = test system: NCI-H23 lung
U251 CNS = test system: U251 CNS
OVCAR-8 ovarian = test system: OVCAR-8 ovarian
HCT-116 colon = test system: HCT-116 colon
SK-OV-3 ovarian = test system: SK-OV-3 ovarian
UACC-62 melanoma = test system: UACC-62 melanoma
SF-295 CNS = test system: SF-295 CNS
786-0 renal = test system: 786-0 renal
PC-3 prostate = test system: PC-3 prostate
NCI-H522 lung = test system: NCI-H522 lung
DU-145 prostate = test system: DU-145 prostate
MALME-3M melanoma = test system: MALME-3M melanoma
NCI-H460 lung = test system: NCI-H460 lung
SK-MEL-28 melanoma = test system: SK-MEL-28 melanoma
NCI-H226 lung = test system: NCI-H226 lung
CAKI-1 renal = test system: CAKI-1 renal
SN12C renal = test system: SN12C renal
CCRF-CEM leukemia = test system: CCRF-CEM leukemia
BT-549 breast = test system: BT-549 breast
RXF 393 renal = test system: RXF 393 renal

Structure (SMILES): CC(=O)c1sc2c(c1OC(=O)c1ccc(Cl)cc1Cl)c(=O)n(-c1ccccc1)c(=S)n2-c1ccccc1
- TGI (SF-268 CNS): 13.7 µM
- TGI (MOLT-4 leukemia): 2.35 µM
- TGI (MDA-MB-435): 31.9 µM
- TGI (RPMI-8226 leukemia): 0.64 µM
- TGI (IGROV1 ovarian): 36.1 µM
- TGI (A549 NSCLC): > 90 µM
- TGI (SNB-19 CNS): 14.2 µM
- TGI (COLO 205 colon): 15 µM
- TGI (HL-60(TB) leukemia): 18.9 µM
- TGI (NCI/ADR-RES ovarian): 20.2 µM
- TGI (OVCAR-5 ovarian): 8.96 µM
- TGI (SK-MEL-2 melanoma): 1.41 µM
- TGI (M14 melanoma): 2.35 µM
- TGI (MDA-N): 20 µM
- TGI (OVCAR-3 ovarian): 39 µM
- TGI (HT29 colon): 3.01 µM
- TGI (HCT-15 colon): 11.2 µM
- TGI (SK-MEL-5 melanoma): 7.17 µM
- TGI (HCC-2998 colon): 22.2 µM
- TGI (EKVX NSCLC): 49.7 µM
- TGI (LOX IMVI melanoma): 1.19 µM
- TGI (A498 renal): 1.4 µM
- TGI (K-562 leukemia): 46.1 µM
- TGI (OVCAR-4 ovarian): 54 µM
- TGI (ACHN renal): 5.21 µM
- TGI (HS 578T breast): 1.4 µM
- TGI (KM12 colon): 27 µM
- TGI (HOP-92 NSCLC): 16.5 µM
- TGI (SF-539 CNS): 0.908 µM
- TGI (SNB-75 CNS): 4.19 µM
- TGI (HOP-62 NSCLC): 16.7 µM
- TGI (MDA-MB-231 breast): 11.7 µM
- TGI (T-47D breast): 82.3 µM
- TGI (SR leukemia): > 100 µM
- TGI (MCF7 breast): 47.1 µM
- TGI (TK-10 renal): 58.2 µM
- TGI (UACC-257 melanoma): 30 µM
- TGI (SW-620 colon): 48.2 µM
- TGI (UO-31 renal): 4.48 µM
- TGI (NCI-H23 lung): 35.3 µM
- TGI (U251 CNS): 25.6 µM
- TGI (OVCAR-8 ovarian): 5.73 µM
- TGI (HCT-116 colon): 37.5 µM
- TGI (SK-OV-3 ovarian): 7.77 µM
- TGI (UACC-62 melanoma): 29.2 µM
- TGI (SF-295 CNS): 6.51 µM
- TGI (786-0 renal): 29.6 µM
- TGI (PC-3 prostate): 13.7 µM
- TGI (NCI-H522 lung): 15.1 µM
- TGI (DU-145 prostate): > 100 µM
- TGI (MALME-3M melanoma): 0.841 µM
- TGI (NCI-H460 lung): 14.3 µM
- TGI (SK-MEL-28 melanoma): > 48.1 µM
- TGI (NCI-H226 lung): 2.53 µM
- TGI (CAKI-1 renal): 25.7 µM
- TGI (SN12C renal): 4.35 µM
- TGI (CCRF-CEM leukemia): 4.99 µM

Structure (SMILES): N#C/C(=C\c1cc(F)cc(F)c1)c1ccccn1
- TGI (SF-268 CNS): 52.8 µM
- TGI (MOLT-4 leukemia): 45.8 µM
- TGI (RPMI-8226 leukemia): > 100 µM
- TGI (IGROV1 ovarian): > 100 µM
- TGI (A549 NSCLC): > 100 µM
- TGI (SNB-19 CNS): > 100 µM
- TGI (BT-549 breast): 97.1 µM
- TGI (COLO 205 colon): > 10 µM
- TGI (HL-60(TB) leukemia): > 10 µM
- TGI (NCI/ADR-RES ovarian): 66.9 µM
- TGI (OVCAR-5 ovarian): > 100 µM
- TGI (SK-MEL-2 melanoma): > 100 µM
- TGI (M14 melanoma): 88.6 µM
- TGI (MDA-N): > 100 µM
- TGI (OVCAR-3 ovarian): > 100 µM
- TGI (HT29 colon): > 100 µM
- TGI (HCT-15 colon): 34.2 µM
- TGI (SK-MEL-5 melanoma): > 100 µM
- TGI (HCC-2998 colon): 60 µM
- TGI (EKVX NSCLC): 44.3 µM
- TGI (K-562 leukemia): > 100 µM
- TGI (OVCAR-4 ovarian): > 100 µM
- TGI (ACHN renal): > 100 µM
- TGI (KM12 colon): 68 µM
- TGI (HOP-92 NSCLC): 48.1 µM
- TGI (SF-539 CNS): 43.5 µM
- TGI (SNB-75 CNS): > 100 µM
- TGI (HOP-62 NSCLC): > 10 µM
- TGI (SR leukemia): 88.6 µM
- TGI (MCF7 breast): > 100 µM
- TGI (TK-10 renal): > 100 µM
- TGI (UACC-257 melanoma): > 100 µM
- TGI (SW-620 colon): > 10 µM
- TGI (UO-31 renal): > 100 µM
- TGI (NCI-H23 lung): 72.8 µM
- TGI (U251 CNS): 40 µM
- TGI (OVCAR-8 ovarian): 45.4 µM
- TGI (HCT-116 colon): > 100 µM
- TGI (SK-OV-3 ovarian): > 100 µM
- TGI (UACC-62 melanoma): > 100 µM
- TGI (SF-295 CNS): 60.2 µM
- TGI (786-0 renal): > 10 µM
- TGI (PC-3 prostate): > 100 µM
- TGI (NCI-H522 lung): 74.8 µM
- TGI (DU-145 prostate): > 100 µM
- TGI (MALME-3M melanoma): 73.9 µM
- TGI (NCI-H460 lung): 74 µM
- TGI (SK-MEL-28 melanoma): > 100 µM
- TGI (NCI-H226 lung): 56.9 µM
- TGI (CAKI-1 renal): > 100 µM
- TGI (SN12C renal): 62.9 µM
- TGI (CCRF-CEM leukemia): > 100 µM
- TGI (RXF 393 renal): > 100 µM

Structure (SMILES): CCCC[C@@H](C)/C=C1\CN2CCC[C@H]2[C@@](C)(O)[C@@H]1O
- TGI (SF-268 CNS): > 100 µM
- TGI (MOLT-4 leukemia): > 100 µM
- TGI (MDA-MB-435): > 100 µM
- TGI (RPMI-8226 leukemia): > 100 µM
- TGI (IGROV1 ovarian): > 100 µM
- TGI (A549 NSCLC): > 100 µM
- TGI (SNB-19 CNS): > 100 µM
- TGI (COLO 205 colon): > 100 µM
- TGI (HL-60(TB) leukemia): 11 µM
- TGI (NCI/ADR-RES ovarian): > 100 µM
- TGI (OVCAR-5 ovarian): > 100 µM
- TGI (SK-MEL-2 melanoma): > 100 µM
- TGI (M14 melanoma): > 100 µM
- TGI (MDA-N): > 100 µM
- TGI (OVCAR-3 ovarian): > 100 µM
- TGI (HT29 colon): > 100 µM
- TGI (HCT-15 colon): > 100 µM
- TGI (SK-MEL-5 melanoma): > 100 µM
- TGI (HCC-2998 colon): > 100 µM
- TGI (EKVX NSCLC): > 100 µM
- TGI (LOX IMVI melanoma): > 100 µM
- TGI (A498 renal): > 100 µM
- TGI (K-562 leukemia): > 100 µM
- TGI (OVCAR-4 ovarian): > 100 µM
- TGI (ACHN renal): > 100 µM
- TGI (HS 578T breast): > 100 µM
- TGI (KM12 colon): > 100 µM
- TGI (HOP-92 NSCLC): 73.6 µM
- TGI (SF-539 CNS): > 100 µM
- TGI (SNB-75 CNS): 85.1 µM
- TGI (HOP-62 NSCLC): > 100 µM
- TGI (MDA-MB-231 breast): > 100 µM
- TGI (T-47D breast): > 100 µM
- TGI (SR leukemia): > 100 µM
- TGI (MCF7 breast): > 100 µM
- TGI (TK-10 renal): > 100 µM
- TGI (UACC-257 melanoma): > 100 µM
- TGI (SW-620 colon): > 100 µM
- TGI (UO-31 renal): > 100 µM
- TGI (NCI-H23 lung): > 100 µM
- TGI (U251 CNS): > 100 µM
- TGI (OVCAR-8 ovarian): > 100 µM
- TGI (SK-OV-3 ovarian): > 100 µM
- TGI (UACC-62 melanoma): > 100 µM
- TGI (SF-295 CNS): > 100 µM
- TGI (786-0 renal): > 100 µM
- TGI (PC-3 prostate): > 100 µM
- TGI (NCI-H522 lung): > 100 µM
- TGI (DU-145 prostate): 60.4 µM
- TGI (MALME-3M melanoma): > 100 µM
- TGI (NCI-H460 lung): > 100 µM
- TGI (SK-MEL-28 melanoma): > 100 µM
- TGI (NCI-H226 lung): > 100 µM
- TGI (CAKI-1 renal): 71.2 µM
- TGI (CCRF-CEM leukemia): > 100 µM
- TGI (RXF 393 renal): 38.1 µM
